Assay results taken from patent US20110104055A1, “SUBSTITUTED N-ARYL BENZAMIDES AND RELATED COMPOUNDS FOR TREATMENT OF AMYLOID DISEASES AND SYNUCLEINOPATHIES” (priority 2002, published 2011).

How the values were obtained:
Type in all cases: biochemical
IAPP fibrils = molecular target: T1, IAPP fibrils (Homo sapiens, UniProt P10997); experiment: Thioflavin T fluorometry, disruption of IAPP fibrils; conditions: 3 days; for % inhibition of IAPP (Thioflavin T fluorometry): 25 μM IAPP, 37° C.
T1 construct: purchased Bachem Inc
T1 sequence (P10997 34-70 limits assumed): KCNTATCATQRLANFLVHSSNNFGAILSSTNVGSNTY
Procedure: The biological activity of the compounds provided herein as disruptors/inhibitors of Alzheimer's disease β-amyloid protein (Aβ) fibrils, type 2 diabetes IAPP fibrils and Parkinson's disease NAC fibrils was assessed by determining the efficacy of the compounds to cause a disassembly/disruption of pre-formed amyloid fibrils of Alzheimer's disease (i.e. consisting of Aβ 1-42 fibrils), IAPP fibrils and Parkinson's disease NAC fibrils. […] In this assay Thioflavin T binds specifically to fibrillar amyloid, and this binding produces a fluorescence enhancement at 485 nm that is directly proportional to the amount of fibrils present. The higher the fluorescence, the greater the amount of fibrils present (Naki et al, Lab. Invest. 65:104-110, 1991; Levine III, Protein Sci. 2:404-410, 1993; Amyloid: Int. J. Exp. Clin. Invest. 2:1-6, 1995). The disruption of Aβ 1-42, even in its monomeric form, was confirmed by a study involving the use of SDS-PAGE and Western blotting methods.
(§1) In this assay Thioflavin T binds specifically to fibrillar amyloid, and this binding produces a fluorescence enhancement at 485 nm that is directly proportional to the amount of amyloid fibrils formed. The higher the fluorescence, the greater the amount of amyloid fibrils formed (Naki et al., Lab. Invest. 65:104-110, 1991; Levine III, Protein Sci. 2:404-410, 1993; Amyloid: Int. J. Exp. Clin. Invest. 2:1-6, 1995).
In this study, 25 μM of IAPP (Bachem Inc) was incubated at 37° C. for 3 days, either alone, or in the presence of one of the compounds or EDTA (at IAPP:test compound weight ratios of 1:1, 1:0.1, 1:0.01 or 1:0.001). Following 3 days of co-incubation, 50 μl of each incubation mixture was transferred into a 96-well microtiter plate containing 150 μl of distilled water and 50 μl of a Thioflavin T solution (i.e. […] Thioflavin T in 250 mM phosphate buffer, pH 6.8). The fluorescence was read at 485 nm (444 nm excitation wavelength) using an ELISA plate fluorometer after subtraction with buffer alone or compound alone, as blank).

Aβ 1-42 fibrils [1] = molecular target: T2, Aβ 1-42 fibrils (Homo sapiens, UniProt P05067); experiment: Congo red binding assay, Aβ 1-42 fibrils (Example 6); conditions: 3-day incubation
T2 construct: purchased Bachem Inc
T2 sequence (P05067 672-713): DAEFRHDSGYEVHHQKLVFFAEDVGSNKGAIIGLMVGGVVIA
Procedure: In the Congo red binding assay the ability of a given test compound to alter amyloid (Aβ 1-42 fibrils, IAPP fibrils or NAC fibrils) binding to Congo red was quantified. In this assay, Aβ 1-42 fibrils, IAPP fibril or NAC fibrils and test compounds were incubated for 3 days and then vacuum filtered through a 0.2 μm filter. The amount of Aβ 1-42 fibrils, IAPP fibrils or NAC fibrils retained in the filter was then quantitated following staining of the filter with Congo red. After appropriate washing of the filter, any lowering of the Congo red color on the filter in the presence of the test compound (compared to the Congo red staining of the amyloid protein in the absence of the test compound) was indicative of the test compound's ability to diminish/alter the amount of aggregated and congophilic Aβ 1-42 fibrils, IAPP fibrils or NAC fibrils.
In the Congo red binding assay the ability of a test compound to alter amyloid (in this case, Aβ) binding to Congo red is quantified. In this assay, Aβ 1-42 and test compounds were incubated for 3 days and then vacuum filtered through a 0.2 μm filter. The amount of Aβ 1-42 retained in the filter was then quantified following staining of the filter with Congo red. After appropriate washing of the filter, any lowering of the Congo red color on the filter in the presence of the test compound (compared to the Congo red staining of the amyloid protein in the absence of the test compound) was indicative of the test compound's ability to diminish/alter the amount of aggregated and congophilic Aβ.
In one study, the ability of Aβ fibrils to bind Congo red in the absence or presence of increasing amounts of the compounds or EDTA (at Aβ:test compound weight ratios of 1:0.001, 1:0.01, 1:0.1 and 1:1) was determined.

α-synuclein fibrils = molecular target: T3, α-synuclein fibrils (Homo sapiens, UniProt P37840); experiment: Congo red binding assay, α-synuclein fibrils (Example 12); conditions: 3-day incubation
T3 construct: purchased rPeptide
Procedure: In the Congo red binding assay, the ability of a given test compound to alter amyloid (in this case, α-synuclein) binding to Congo red is quantified. In this assay, α-synuclein and test compounds were incubated for 3 days and then vacuum filtered through a 0.2 μm filter. The amount of α-synuclein retained in the filter was then quantitated following staining of the filter with Congo red. After appropriate washing of the filter, any lowering of the Congo red color on the filter in the presence of the test compound (compared to the Congo red staining of the amyloid protein in the absence of the test compound) was indicative of the test compound's ability to diminish/alter the amount of aggregated and congophilic α-synuclein.
In one study, the ability of α-synuclein fibrils to bind Congo red in the absence or presence of increasing amounts of compounds DC-0051-F1, F2, F3, F4, F5, F6 and EDTA (at α-synuclein:test compound weight ratios of 1:1, 1:0.1, 1:0.01 or 1:0.001) was determined.

Aβ 1-42 fibrils [2] = molecular target: T2, Aβ 1-42 fibrils; experiment: Thioflavin T fluorometry, disruption of pre-formed Aβ 1-42 fibrils (Example 11); conditions: 3 days; for % Inhibition Aβ (result ± S.D.), Thioflavin T fluorometry: 30 μg pre-fibrillized Aβ 1-42, 37° C.
Source text: as §1, with “In one study, Thioflavin T fluorometry was used to determine the effects of the compounds, and of EDTA (as a negative control). In this” for “In this”
Following 3-days of co-incubation, 50 μl of each incubation mixture was transferred into a 96-well microtiter plate containing 150 μl of distilled water and 50 μl of a Thioflavin T solution (i.e. 500 mM Thioflavin T in 250 mM phosphate buffer, pH 6.8). The fluorescence was read at 485 nm (444 nm excitation wavelength) using an ELISA plate fluorometer after subtraction with buffer alone or compound alone, as blank.

[3] = Thioflavin T fluorometry, all concentrations tested
[4] = Aβ:test compound wt/wt ratio 1:0.001
[5] = Aβ:test compound wt/wt ratio 1:0.01
[6] = Aβ:test compound wt/wt ratio 1:0.1
[7] = Aβ:test compound wt/wt ratio 1:1

In the case of `O=C(O)CN(CCN(CC(=O)O)CC(=O)O)CC(=O)O` [EDTA], the “% inhibition of IAPP (Thioflavin T fluorometry)” value (from here on “% inhibition of IAPP”) (IAPP fibrils; IAPP:test compound wt/wt ratio 1:0.001) is reported as 0.0 +/− 0.56%, the “% inhibition of IAPP” value (IAPP fibrils; IAPP:test compound wt/wt ratio 1:0.01) is reported as 4. +/− 3.152% and the “% inhibition of IAPP” value (IAPP fibrils; IAPP:test compound wt/wt ratio 1:0.1) is reported as 1.6 +/− 5.86%. The “% inhibition of IAPP” value (IAPP fibrils; IAPP:test compound wt/wt ratio 1:1) was 0.0 ± 1.31%, the “disruption/disassembly of preformed IAPP fibrils, in words” value (IAPP fibrils; [3]) was “no significant inhibition/disruption” and the “inhibition of Aβ 1-42 fibril binding to Congo red, in words” value (Aβ 1-42 fibrils [1]) was “no significant inhibition”. The “% inhibition of Aβ (Congo red binding)” value (Aβ 1-42 fibrils [1]; [4]) was 0.0 ± 0.62%, the “% inhibition of Aβ (Congo red binding)” value (Aβ 1-42 fibrils [1]; [5]) was 0.0 +/− 0.49% and the “% inhibition of Aβ (Congo red binding)” value (Aβ 1-42 fibrils [1]; [6]) was 0.0 ± 0.76%. The “% inhibition of Aβ (Congo red binding)” value (Aβ 1-42 fibrils [1]; [7]) was 3.9 +/− 1.37%, the “inhibition of α-synuclein fibril binding to Congo red, in words” value (α-synuclein fibrils; all concentrations tested) was “no significant inhibition” and the “% Inhibition α-synuclein (result ± S.D.), Congo red binding” value (shortened to “% Inhibition α-synuclein”) (α-synuclein fibrils; α-synuclein:test compound wt/wt ratio 1:0.001) was 3.3 ± 1.85%. For the same compound, the “% Inhibition α-synuclein” value (α-synuclein fibrils; α-synuclein:test compound wt/wt ratio 1:0.01) was 2.9 ± 5.0%, the “% Inhibition α-synuclein” value (α-synuclein fibrils; α-synuclein:test compound wt/wt ratio 1:0.1) was 2.2 ± 5.16% and the “% Inhibition α-synuclein” value (α-synuclein fibrils; α-synuclein:test compound wt/wt ratio 1:1) was 0.0 ± 5.50%. The “% Inhibition Aβ (result ± S.D.), Thioflavin T fluorometry” value (“% Inhibition Aβ” below) (Aβ 1-42 fibrils [2]; [4]) was 0.0 ± 1.70%, the “% Inhibition Aβ” value (Aβ 1-42 fibrils [2]; [5]) was 2.4 ± 2.86% and the “% Inhibition Aβ” value (Aβ 1-42 fibrils [2]; [6]) was 0.0 ± 6.02%. For the same compound, the “% Inhibition Aβ” value (Aβ 1-42 fibrils [2]; [7]) was 0.0 ± 3.46% and the “disruption/disassembly of preformed Aβ 1-42 fibrils, in words” value (Aβ 1-42 fibrils [2]; [3]) was “no significant inhibition”.
